# Experimental data from US20080311126A1, “Antisense Oligonucleotides Directed to Ribonucleotide Reducatase R2 and Uses Thereof in Combination Therapies for the Treatment of Cancer” (Genesense Technologies, Inc, priority 2004, published 2008).
# Entries after “also recorded” stand apart in the source; their conditions may differ.
# How the values were obtained:
# Type in all cases: in vivo
# [1] = test system: HT-29 human colon cancer cells; test: HT-29 colon tumour xenograft in CD-1 nude mice
# Method: HT-29 human colon cancer cells (3×10^6 cells in 100 μl of PBS) were subcutaneously injected into the right flank of 6-7 weeks old female CD-1 nude mice. After the size of tumour reached an approximate volume of 50 mm^3, 4 days post tumour cell injection, mitomycin C was administered by bolus infusion into the tail vein at days 4, 11 and 18 with a dose of 3.5 mg/kg/week. Antitumour effect of mitomycin C was further compared to that of SEQ ID NO:1 in combination with mitomycin C. SEQ ID NO:1 was administered by bolus infusion into the tail vein every day at 6 mg/kg and mitomycin C was administered intravenously at days 4, 11 and 18 with a dose of 3.5 mg/kg/week, one hour after the treatments with SEQ ID NO:1. Control animals received saline alone for the same period as SEQ ID NO:1. All treatments were stopped at day 22. A day after the last treatment, tumours were excised from the animals and their weights were measured.
# HT-29 human colon cancer cells (3×10^6 cells in 100 μl of PBS) were subcutaneously injected into the right flank of 5-6 week old female CD-1 nude mice. After the size of tumour reached an approximate volume of 100 mm^3, 7 days post tumour cell injection, SEQ ID NO:1 was administered by bolus infusion into the tail vein every other day at 10 mg/kg. Control animals received saline alone for the same period. Antitumour effect of SEQ ID NO:1 was further compared to that of CPT-11 alone or that of SEQ ID NO:1 in combination with CPT-11. CPT-11 was administered intraperitoneally for 5 days in a row from […] with a dose of 20 mg/kg in 100 μl saline. All treatments were stopped at day 32. A day after the last treatment, tumours were excised from the animals and their weights were measured.
# HT-29 human colon cancer cells (3×10^6 cells in 100 μl of PBS) were subcutaneously injected into the right flank of 6-7 week old female CD-1 nude mice. Treatments started at day 5 post tumour cell injection, SEQ ID NO:1 and 5-FU were administered as outlined below: • Groups and treatment: • Group 1. Saline treated group: saline:0.1 ml/2 days, i.v.; • Group 2. SEQ ID NO:1 treated group: 10 mg/kg/2 days in 100 μL saline, i.v.; • Group 3. 5-FU treated group:13 mg/kg/5 days/week (one week on and one week off), i.v.; • Group 4. SEQ ID NO:1 plus 5-FU treated group.
# HT-29 human colon cancer cells (3×10^6 cells in 100 μl of PBS) were subcutaneously injected into the right flank of 5-6 week old female CD-1 nude mice. Treatments started 4 days post tumour cell injection, SEQ ID NO: 1 and Capecitabine were administered as outlined below: • Group and Treatment: • Group 1: treated with 0.2 ml vehicle solution for capecitabine, o.p.; • Group 2: treated with 0.1 ml saline, i.v.; • Group 3: treated with 359 mg/kg/day×5/w Capecitabine in 0.2 ml vehicle solution, o.p.; • Group 4: treated with 10 mg/kg/2 days SEQ ID NO:1 in 0.1 ml saline i.v.; • Group 5: treated with 10 mg/kg/2 days SEQ ID NO:1 in 0.1 ml saline, i.v. plus 359 mg/kg/day×5/w capecitabine in 0.2 ml vehicle solution, o.p.
# [2] = test system: A2058 human melanoma cells; test: A2058 melanoma xenograft in CD-1 nude mice
# Method: A2058 human melanoma cells 1×10^7 cells in 100 μl of PBS) were subcutaneously injected into the right flank of 6-7 week old female CD-1 nude mice. A2058 is a metastatic melanoma cell line. After the size of tumour reached an approximate volume of 100 mm^3, 6 days post tumour cell injection, SEQ ID NO:1 was administered by bolus infusion into the tail vein every other day at 10 mg/kg. Control animals received saline alone for the same period. Antitumour effect of SEQ ID NO:1 was further compared to that of dacarbazine (DTIC) alone or that of SEQ ID NO:1 in combination with DTIC. DTIC was administered intravenously for 5 days in a row from day 6-10 at a dose of 80 mg/kg in 100 μl saline. All treatments were stopped at day 24. A day after the last treatment, tumours were excised from the animals and their weights were measured.
# [3] = test system: SK-OV-3 human ovary adenocarcinoma cells; test: SK-OV-3 ovary tumour xenograft in CD-1 nude mice
# Method: SK-OV-3 human ovary adenocarcinoma cells (1×10^7 cells in 100 μl of PBS) were subcutaneously injected into the right flank of 6-7 weeks old female CD-1 nude mice. After the size of tumour reached an approximate volume of 100 mm^3, 6 days post tumour cell injection, SEQ ID NO:1 was administered by bolus infusion into the tail vein every other day at 10 mg/kg 17 times. Control animals received saline alone for the same period. Antitumour effect of SEQ ID NO: 1 was further compared to that of taxol or cisplatin alone or in combination. Taxol was administered intravenously once a week for first three weeks and intraperitoneally once a week for next two weeks at a dose of 10 mg/kg. Cisplatin was administered intravenously once a week for first three weeks and intraperitoneally once a week for next two weeks at a dose of 4 mg/kg. All treatments were stopped at day 40. Antitumour activities were estimated by the inhibition of tumour volume, which was measured with caliper. Each point represents mean tumour volume calculated from 9 animals per experimental group.
# [4] = test system: BxPC-3 human pancreatic carcinoma cells; test: BxPC-3 gemcitabine resistant pancreatic carcinoma xenograft in CD-1 nude mice
# Method: BxPC-3 human pancreatic carcinoma cells (3×10^6 cells in 100 μl of PBS) were subcutaneously injected into the right flank of 6-7 weeks old female CD-1 nude mice. BxPC-3 is a gemcitabine resistant call line. After the size of tumour reached an approximate volume of 100 mm^3, 21 days post tumour cell injection, SEQ ID NO:1 was administered by bolus infusion into the tail vein every other day at 10 mg/kg 17 times. Control animals received saline alone for the same period. Antitumour effect of SEQ ID NO:1 was further compared to that of Gemcitabine. Gemcitabine was administered intravenously every three days at a dose of 100 mg/kg. Antitumour activities were estimated by the inhibition of tumour volume, which was measured with caliper. Each point represents mean tumour volume calculated from 10 animals per experimental group. […] As expected, treatment with Gemcitabine during the same period was ineffective against Gemcitabine-resistant tumour (FIGS. 19A & B).
# [5] = test system: Human Glioblastoma-Astrocytoma; test: Tumour growth assay, human glioblastoma-astrocytoma in mice
# [6] = test system: Human Cervical Carcinoma; test: Tumour growth assay, human cervical carcinoma in SCID mice
# [7] = Human Cervical Carcinoma^2 (second entry), SCID mice, Day 17 after tumour implantation
sequence,measurement,setting,value
"GGCTAAATCGCTCCACCAAG (chemistry not given here) [SEQ ID NO: 1, antisense oligonucleotide that hybridizes to the coding region of human ribonucleotide reductase R2 mRNA]",antitumour effect (tumour weight),"[1]; Example 12.2, SEQ ID NO:1 10 mg/kg every other day i.v., CPT-11 20 mg/kg i.p. 5 days",significant delay of tumour growth; also recorded: superior to the inhibitory effects observed with CPT-11 alone
same,Tumour weight as % of saline control,"[1]; HT-29 (colon), Mouse CD-1, CPT-11 study",19%
same,Tumour weight as % of saline control,"[2]; A2058 (melanoma), Mouse CD-1",20%
same,antitumour effect (tumour weight),"[2]; SEQ ID NO:1 10 mg/kg every other day i.v., DTIC 80 mg/kg i.v. 5 days",significant delay of tumour growth; also recorded: superior to the inhibitory effects observed with DTIC alone
same,antitumour effect (tumour volume),"[3]; SEQ ID NO:1 10 mg/kg 17 times, taxol 10 mg/kg, cisplatin 4 mg/kg once a week",significant delay of tumour growth
same,tumour volume data as percentage of saline control,"[3]; SK-OV-3 (ovary), Mouse CD-1",42%
same,Tumour weight as % of saline control,"[4]; BxPC-3 (pancreatic), Gemcitabine resistance, CD-1",5.8%
same,antitumour effect (tumour volume),"[4]; SEQ ID NO:1 10 mg/kg 17 times i.v., Gemcitabine 100 mg/kg i.v. every three days",significant delay of tumour growth
same,Inhibition of tumour weight,[5],approximately 65%
same,Inhibition of tumour weight,[6]; Human Cervical Carcinoma^2 (first entry),approximately 90%
same,Inhibition of tumour size,[6]; [7],approximately 60% in SCID mice on
same,Inhibition of tumour weight,[6]; [7],approximately 60% in SCID mice on
